Source: patent US4371466A, “Mammalian collagenase inhibitors” (American Home Products Corporation, priority 1981, dated 1983)
Non-standard residues stand in square brackets, D forms with d. Residues, ends and D or L forms follow the SMILES beside them. pGlu = O=C1CC[C@@H](C(=O)O)N1

These compounds were tested on collagenase (assay: Collagenase inhibition, acetyl 14C collagen hydrolysis (procedure of Sellers et al.)). Conditions: 2 mM inhibitor, 35° C., 5 to 18 hours, Tris-CaCl2 pH 7.4, versus control devoid of inhibitor.
Assay type: biochemical
Description: The collagen is acetyl ^14 C collagen. The samples are centrifuged and an aliquot removed for assay on a scintillation counter. Because native collagen forms insoluble fibrils under the test conditions, the supernatant liquid contains radioactivity as a measure of hydrolysis. The collagenase activity in the presence of 2 mM inhibitor is compared to activity in a control devoid of inhibitor and the results reported as percent inhibition of collagenase activity. Each of the compounds of this invention have been established as active collagenase inhibitors by the test procedure.
The following examples illustrate the preparation of typical representative compounds of the invention. After each preparative example, the percent inhibition of collagenase activity at the 2 mM level of inhibition in accordance with the previously described standart testing procedure is provided.
Compound “Ac-PQGIAG-NH2 [Example 3, CH3 CO-Pro-Gln-Gly-Ile-Ala-Gly-NH2]” has a Percent inhibition collagenase of 35%. CC[C@H](C)[C@H](NC(=O)[C@H](CS)NC(=O)[C@@H]1CCC(=O)N1)C(N)=O [Example 2, L-pGlu-L-Cys-L-Ile-NH2] ([pGlu]-Cys-Ile-NH2) was tested, and the Percent inhibition collagenase was 75%. Compound CC[C@H](C)[C@H](NC(=O)[C@@H](N)CS)C(N)=O [Example 1, H-L-Cys-L-Ile-NH2] (H-Cys-Ile-NH2) has a Percent inhibition collagenase of 35%.
